# Measurements published in PMC12198292, “Advancing in vitro assessment of iodide uptake inhibition: integrating a novel biotransformation pretreatment step” (Archives of Toxicology, 2025).
# Where “and” joins values, the source holds several entries; their conditions need not be identical. Equal entries are not always repeated. Where two headings read alike, the source gives them in different places.
# What was measured:
# [1] = target: T1, human NIS (Homo sapiens, UniProt Q92911); set-up: host or cells: HEK293T (lentiviral transduction, puromycin selection, GFP sorting; lines NIS 02 and NIS C); details: cited from earlier work; for IC20: read-out: Data from literature NIS IC20
# T1 sequence (Q92911 1-643): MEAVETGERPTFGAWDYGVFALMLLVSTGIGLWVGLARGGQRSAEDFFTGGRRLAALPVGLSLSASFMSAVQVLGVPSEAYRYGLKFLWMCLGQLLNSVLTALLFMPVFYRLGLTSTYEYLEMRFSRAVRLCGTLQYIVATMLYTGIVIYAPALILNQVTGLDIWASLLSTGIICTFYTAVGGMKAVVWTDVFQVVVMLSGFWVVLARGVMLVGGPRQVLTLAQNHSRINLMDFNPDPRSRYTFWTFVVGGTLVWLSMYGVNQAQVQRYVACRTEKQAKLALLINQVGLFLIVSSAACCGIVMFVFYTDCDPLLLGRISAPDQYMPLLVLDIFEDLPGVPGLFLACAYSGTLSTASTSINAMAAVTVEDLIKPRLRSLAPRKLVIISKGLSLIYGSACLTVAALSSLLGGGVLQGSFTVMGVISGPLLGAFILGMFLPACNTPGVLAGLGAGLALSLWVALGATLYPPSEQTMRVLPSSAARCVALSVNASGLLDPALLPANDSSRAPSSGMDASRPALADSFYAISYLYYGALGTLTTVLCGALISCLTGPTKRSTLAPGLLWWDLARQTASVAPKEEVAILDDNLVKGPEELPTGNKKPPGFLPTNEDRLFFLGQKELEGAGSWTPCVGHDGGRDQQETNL
# [2] = in vitro; details: rat, FRTL-5 cells
# [3] = target: T1, human NIS; assay: NIS-inhibition assay (iodide uptake, Sandell–Kolthoff reaction) on HEK293T NIS C; format: cell-based; set-up: host or cells: HEK293T (lentiviral transduction, puromycin selection, GFP sorting; lines NIS 02 and NIS C)
# [4] = target: T1, human NIS
# [5] = target: T2, NIS (Rattus norvegicus, UniProt Q63008); assay: NIS-inhibition assay (iodide uptake, Sandell–Kolthoff reaction) on FRTL-5; format: cell-based; details: mean ± SD, ≥ 3 independent experiments; 2 h exposure; SK reaction
# T2 construct: the endogenously NIS-expressing rat FRTL-5 cell line; host or cells: FRTL-5 (CVCL_0265)
# T2 sequence (Q63008 1-618): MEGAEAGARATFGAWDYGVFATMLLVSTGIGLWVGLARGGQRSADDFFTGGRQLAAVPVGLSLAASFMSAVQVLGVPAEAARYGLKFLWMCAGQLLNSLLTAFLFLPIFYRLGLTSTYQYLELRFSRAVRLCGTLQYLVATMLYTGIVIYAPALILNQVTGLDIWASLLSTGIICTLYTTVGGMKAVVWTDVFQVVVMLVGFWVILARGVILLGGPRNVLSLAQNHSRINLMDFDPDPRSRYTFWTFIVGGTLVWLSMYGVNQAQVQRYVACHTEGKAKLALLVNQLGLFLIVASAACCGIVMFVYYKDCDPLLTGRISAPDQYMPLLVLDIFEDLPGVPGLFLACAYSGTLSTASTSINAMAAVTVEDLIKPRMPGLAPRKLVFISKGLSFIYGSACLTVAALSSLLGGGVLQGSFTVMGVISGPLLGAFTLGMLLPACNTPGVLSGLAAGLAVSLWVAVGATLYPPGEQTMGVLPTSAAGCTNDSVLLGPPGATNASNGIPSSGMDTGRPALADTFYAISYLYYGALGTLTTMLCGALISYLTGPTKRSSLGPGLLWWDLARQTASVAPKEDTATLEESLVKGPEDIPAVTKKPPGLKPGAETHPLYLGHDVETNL
# [6] = in vitro; details: human, HEK293T NIS C cells
# [7] = target: T2, NIS; details: FRTL-5, SK, read-out: Data from literature NIS IC50, cited from earlier work
# [8] = set-up: method as in PubChem https://pubchem.ncbi.nlm.nih.gov/; details: ref PubChem https://pubchem.ncbi.nlm.nih.gov/; cited from earlier work
# [9] = target: T1, human NIS; assay: NIS-inhibition assay (iodide uptake, Sandell–Kolthoff reaction) on HEK293T NIS 02; format: cell-based; set-up: host or cells: HEK293T (lentiviral transduction, puromycin selection, GFP sorting; lines NIS 02 and NIS C)
# [10] = set-up: method as in PubChem https://pubchem.ncbi.nlm.nih.gov/; details: ref PubChem https://pubchem.ncbi.nlm.nih.gov/; cited from earlier work; remark: listed apart in the source
# [11] = target: T1, human NIS; assay: Biotransformation (BTS, rat S9)-augmented NIS-inhibition assay, HEK293T NIS02; details: for effect of fully active BTS (W/S9, W/cof) on NIS inhibition versus control setups: two-way ANOVA, p < 0.05
# [12] = target: T1, human NIS; set-up: host or cells: HEK293T (lentiviral transduction, puromycin selection, GFP sorting; lines NIS 02 and NIS C); method as in Dong et al., 2019; details: hNIS-HEK293T-EPA, SK, ref Dong et al., 2019, cited from earlier work
# [13] = ref PubChem https://pubchem.ncbi.nlm.nih.gov/; cited from earlier work
# [14] = system: zebrafish NIS; set-up: method as in Concilio et al., 2020; details: HeLa transfected with zebrafish NIS; RAIU; ref Concilio et al., 2020; read-out: Data from literature NIS IC50; cited from earlier work
# [15] = target: T2, NIS; details: FRTL-5, RAIU, read-out: Data from literature NIS IC50, cited from earlier work
# [16] = target: T1, human NIS; set-up: method as in Dong et al., 2019; details: MCF7hNIS, SK, ref Dong et al., 2019, cited from earlier work
# [17] = system: hNIS; set-up: method as in Concilio et al., 2020; details: HeLa transfected with hNIS; RAIU; ref Concilio et al., 2020; read-out: Data from literature NIS IC50; cited from earlier work
# [18] = system: whale NIS; set-up: method as in Concilio et al., 2020; details: HeLa transfected with whale NIS; RAIU; ref Concilio et al., 2020; read-out: Data from literature NIS IC50; cited from earlier work
# [19] = system: HEK293T NIS02 cells; assay: Neutral red uptake viability assay, HEK293T NIS02; details: 100 µM
# [20] = in vitro; details: human
# [21] = hNIS-HEK293T-EPA, RAIU, ref Hallinger et al., 2017
# [22] = mean ± SD, ≥ 3 independent experiments, 2 h exposure, SK reaction, read-out: NIS IC50 HEK293T NIS C
# [23] = mean ± SD, ≥ 3 independent experiments, 2 h exposure, SK reaction, read-out: NIS IC50 HEK293T NIS 02
# [24] = read-out: Data from literature NIS IC20
# [25] = read-out: Data from literature NIS IC50
smiles,measurement,setting,value
"CC(C)(c1ccc(O)cc1)c1ccc(O)cc1 [BPA, Bisphenol A]",IC20,[1]; [21],35.5 µM
same,IC20,"[1]; hNIS-HEK293T-EPA, RAIU, ref US-EPA, 2024",24.3 ± 21.6 µM
same,Data from literature NIS IC50,"[1]; hNIS-HEK293T-EPA, RAIU, ref Wang et al., 2018",n.e.
same,IC20,"[1]; hNIS-HEK293T-EPA, RAIU, ref Wang et al., 2019",19.5 µM
same,IC20 at 2 h,[2],364 µM
same,IC50,[3]; [22],309 ± 2.5 µM
same,"effect of fully active BTS (W/S9, W/cof) on NIS inhibition versus control setups",[4],statistically significant reduction in NIS inhibition
same,IC50,[5],302 ± 197 µM
same,IC20 at 2 h,[6],181 µM
same,IC50,"[7]; ref Wu et al., 2016",112 µM
same,Henry‘s law,[8],4.0x10^-11 atm- m^3/mol
same,IC50,[9]; [23],111 ± 75 µM
same,log Kow,[10],3.32
same,increase of IC20 by preincubation in fully active BTS setup compared to the denatured BTS setup,"[11]; W/S9, W/cof vs D S9, W/cof",~6.3 fold
same,IC20,"[11]; read-out: NIS inhibition IC20 SM, standard method without preincubation, run in parallel, three independent experiments",4.7 ± 6 µM
"[O-][Cl+3]([O-])([O-])O [PCL, Perchlorate, reference compound]",IC20,"[1]; hNIS-HEK293T-EPA, RAIU, ref Dong et al., 2019",0.1 µM
same,IC50,"[1]; hNIS-HEK293T-EPA, RAIU, ref Dong et al., 2019, read-out: Data from literature NIS IC50",0.53 µM
same,IC20,[1]; [21],0.2 µM
same,IC20,[12]; [24],0.2 µM
same,IC50,[12]; [25],0.8 µM
same,solubility in water,[13],>2000 mg/mL
same,IC50,[14],0.08 µM
same,IC50,[3]; [22],14.9 ± 8.3 µM
same,IC50,"[15]; ref Buckalew et al., 2020",0.2 µM
same,IC50,"[15]; ref Waltz et al., 2010",0.14 µM
same,IC50,[5],5.1 ± 4.6 µM
same,IC20,[16]; [24],0.2 µM
same,IC50,[16]; [25],0.5 µM
same,IC50,"[7]; ref Waltz et al., 2010",0.1 µM
same,IC50,"[7]; ref Wu et al., 2016",0.3 µM
same,IC50,[9]; [23],1.65 ± 0.57 µM
same,"effect of fully active BTS (W/S9, W/cof) on NIS inhibition versus control setups",[11],no significant differences were observed
same,IC50,[17],1.6 µM and 1.56 µM
same,IC50,[18],4.6 µM and 4.59 µM
"Oc1cc(Cl)ccc1Oc1ccc(Cl)cc1Cl [TCS, Triclosan]",IC20,[1],2.6 µM
same,cytotoxicity in the standard NIS assay (NR and CTG),[19],cytotoxic
same,IC50,[3],34.8 ± 23.5 µM
same,IC50,[5],39.3 ± 18.9 µM
same,IC50,"[7]; ref Wu et al., 2016",21.3 µM
same,IC50,[9]; NIS IC50 HEK293T NIS 02,18.5 ± 9.9 µM
same,IC20 at 2 h,[20],45.9 µM
same,increase of IC20 by preincubation in fully active BTS setup compared to the denatured BTS setup,[11],approximately 5 fold
same,IC20,"[11]; read-out: NIS inhibition IC20 D S9, W/cof, 5 h preincubation with denatured S9 and cofactors, three independent experiments",1.07 ± 0.65 µM
same,IC20,[11]; read-out: NIS inhibition IC20 SM,1.78 ± 1.12 µM
same,IC20,"[11]; read-out: NIS inhibition IC20 W/O S9, W/cof, 5 h preincubation without S9 fraction, with all cofactors, three independent experiments",1.02 ± 0.82 µM
same,"effect of fully active BTS (W/S9, W/cof) on NIS inhibition versus control setups",[11],statistically significant reduction in NIS inhibition
